# Measurements reported in US9328361B2, “Coryneform bacterium transformant and process for producing phenol using the same” (GREEN PHENOL DEVELOPMENT CO., LTD., priority 2010, dated 2016).
# Read-outs that look alike come from different tables or passages of the source.
# How the values were obtained:
# Escherichia coli JM109 = settings: aerobic culture, LB liquid medium, 37° C.
# Description: (§1) A growth inhibition test in aerobic culture was performed to examine the influence of phenol on Corynebacterium glutamicum, Escherichia coli, and Pseudomonas putida. Pseudomonas putida S12, which was used for the test, is reported to be a solvent-resistant strain. In the report, disclosed is an unparalleled technology using the strain as a host in phenol production.
# Escherichia coli JM109 was applied to LB agar medium (1% polypeptone, 0.5% yeast extract, 0.5% NaCl and 1.5% agar) and was left stand in the dark at 37° C. for 15 hours.
# The growth of bacterial cells was determined by absorbance measurement at OD610.
# (§2) Pseudomonas putida F1 and S12 grown in the above conditions were each inoculated into 100 mL of LB (+glucose) liquid medium in such a way that the initial bacterial cell concentration would be OD610=0.05, phenol was added at the same time in such a way that the final concentration would be 0, 0.10, or […], and aerobic culture was performed with shaking at 30° C. The growth of bacterial cells was determined by absorbance measurement at OD610. […] The vertical axis of FIG. 1 indicates OD610.
# Pseudomonas putida F1 = settings: aerobic culture, LB (+glucose) liquid medium, 30° C.
# Description: as §1
# (§3) Pseudomonas putida F1 and S12 were applied to LB agar medium (1% polypeptone, 0.5% yeast extract, 0.5% NaCl and 1.5% agar) and were left stand in the dark at 30° C. for 15 hours.
# (§4) An inoculation loop of each of Pseudomonas putida F1 and S12 was inoculated into a test tube containing 10 mL of LB (+glucose) liquid medium (1% polypeptone, 0.5% yeast extract, 0.5% NaCl and 0.4% glucose), and aerobic culture was performed with shaking at 30° C. for 13 hours.
# as §2
# Pseudomonas putida S12 = settings: aerobic culture, LB (+glucose) liquid medium, 30° C.
# Description: as §1, §3, §4, §2
# [1] = test system: Corynebacterium glutamicum R; settings: aerobic culture, A liquid medium, 33° C.
# Description: as §1, with “production. […]” for “production.”
# The Corynebacterium glutamicum R grown in the above conditions was inoculated into 100 mL of A liquid media in such a way that the initial bacterial cell concentration would be OD610=0.05, phenol was added at the same time in such a way that the final concentration would be 0, 0.16, 0.2, 0.24, or […], and aerobic culture was performed with shaking at 33° C. The growth of bacterial cells was determined by absorbance measurement at OD610.
# Pseudomonas putida F1 and S12 grown in the above conditions were each inoculated into 100 mL of LB (+glucose) liquid medium in such a way that the initial bacterial cell concentration would be OD610=0.05, phenol was added at the same time in such a way that the final concentration would be 0, 0.10, or […], and aerobic culture was performed with shaking at 30° C. The growth of bacterial cells was determined by absorbance measurement at OD610. […]
# [2] = test system: Corynebacterium glutamicum R; settings: reducing conditions (ORP −450 mV), 8% glucose, 33° C.
# Description: Corynebacterium glutamicum R was applied to A agar medium and was left stand in the dark at 33° C. for 20 hours.
# An inoculation loop of the Corynebacterium glutamicum R grown on a plate as above was inoculated into a test tube containing 10 mL of A liquid medium and was aerobically cultured with shaking at 33° C. for 15 hours.
# The Corynebacterium glutamicum R grown in the above conditions was inoculated into a 2 L-conical flask containing 500 mL of A liquid medium and was aerobically cultured with shaking at 33° C. for 15 hours.
# The bacterial cells cultured and proliferated as above were collected by centrifugation (5,000×g at 4° C. for 15 minutes). The obtained bacterial cells were suspended in BT (-urea) liquid medium (0.7% ammonium sulfate, 0.05% potassium dihydrogen phosphate, 0.05% dipotassium hydrogen phosphate, 0.05% magnesium sulfate heptahydrate, 0.0006% iron sulfate heptahydrate, 0.00042% manganese sulfate hydrate, 0.00002% biotin and 0.00002% thiamine hydrochloride) so that the concentration of the bacterial cell was 10% (w/v). […] During the reaction, 2.5 N aqueous ammonia was added with the use of a pH controller (Type: DT-1023 made by Able) to avoid the pH of the reaction mixture falling below 7.0.
structure (smiles),measurement,setting,value
Oc1ccccc1 [phenol],proliferation of Escherichia coli,Escherichia coli JM109; 0.16% phenol,significantly affected
same,proliferation of Escherichia coli,Escherichia coli JM109; 0.20% phenol,completely inhibited
same,proliferation of Pseudomonas putida F1,Pseudomonas putida F1; 0.10% phenol,significantly affected
same,proliferation of Pseudomonas putida F1,Pseudomonas putida F1; 0.20% phenol,completely inhibited
same,proliferation of Pseudomonas putida S12,Pseudomonas putida S12; 0.10% phenol,significantly affected
same,proliferation of Pseudomonas putida S12,Pseudomonas putida S12; 0.20% phenol,completely inhibited
same,proliferation of Corynebacterium glutamicum,[1]; 0.16% phenol,hardly affected
same,proliferation of Corynebacterium glutamicum,[1]; 0.20% phenol,favorable growth
same,influence on saccharide consumption,[2]; 0.24% phenol,no influence of phenol was observed
same,saccharide consumption,[2]; 0.38% phenol,saccharide consumption was observed
same,saccharide consumption,[2]; 0.46% phenol,slightly observed
